# According to article PMC9097638, “Mechanism underlying the carotenoid accumulation in shaded tea leaves” (Food Chemistry: X, 2022):
# Assays:
# CsLCYB = biological target: T1, CsLCYB (Camellia sinensis, UniProt A0A0B4SX47); experiment: E. coli pAC-LYC complementation, HPLC of pigments; type: cell-based; details: lycopene made in the cells; product beta-carotene; 30 °C, 48 h, darkness
# T1 construct: gene lcyb; full-length cDNA subcloned into y2 plasmid; expressed in E. coli DH5alpha carrying pAC-LYC; not purified
# T1 sequence (A0A0B4SX47 1-504): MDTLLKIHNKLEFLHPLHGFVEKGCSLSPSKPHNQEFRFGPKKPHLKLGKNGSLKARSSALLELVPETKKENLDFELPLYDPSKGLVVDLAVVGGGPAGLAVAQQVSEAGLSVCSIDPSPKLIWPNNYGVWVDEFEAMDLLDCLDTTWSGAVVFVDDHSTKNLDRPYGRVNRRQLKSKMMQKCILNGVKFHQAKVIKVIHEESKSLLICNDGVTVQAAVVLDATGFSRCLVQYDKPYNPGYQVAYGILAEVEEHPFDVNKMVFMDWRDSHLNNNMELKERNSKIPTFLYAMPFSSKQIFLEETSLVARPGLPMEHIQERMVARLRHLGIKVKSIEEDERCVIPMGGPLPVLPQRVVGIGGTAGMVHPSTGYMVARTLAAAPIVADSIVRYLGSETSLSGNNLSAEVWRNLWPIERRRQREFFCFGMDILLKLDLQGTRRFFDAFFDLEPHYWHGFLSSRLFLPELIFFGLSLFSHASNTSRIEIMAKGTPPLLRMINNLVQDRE
# CsLCYE = biological target: T2, CsLCYE (Camellia sinensis, UniProt A0A7J7G232); experiment: E. coli pAC-LYC complementation, HPLC of pigments; type: cell-based; details: lycopene made in the cells; product delta-carotene; 30 °C, 48 h, darkness
# T2 construct: gene HYC85_025912; full-length cDNA subcloned into y2 plasmid; expressed in E. coli DH5alpha carrying pAC-LYC; not purified
# T2 sequence (A0A7J7G232 1-531 limits assumed): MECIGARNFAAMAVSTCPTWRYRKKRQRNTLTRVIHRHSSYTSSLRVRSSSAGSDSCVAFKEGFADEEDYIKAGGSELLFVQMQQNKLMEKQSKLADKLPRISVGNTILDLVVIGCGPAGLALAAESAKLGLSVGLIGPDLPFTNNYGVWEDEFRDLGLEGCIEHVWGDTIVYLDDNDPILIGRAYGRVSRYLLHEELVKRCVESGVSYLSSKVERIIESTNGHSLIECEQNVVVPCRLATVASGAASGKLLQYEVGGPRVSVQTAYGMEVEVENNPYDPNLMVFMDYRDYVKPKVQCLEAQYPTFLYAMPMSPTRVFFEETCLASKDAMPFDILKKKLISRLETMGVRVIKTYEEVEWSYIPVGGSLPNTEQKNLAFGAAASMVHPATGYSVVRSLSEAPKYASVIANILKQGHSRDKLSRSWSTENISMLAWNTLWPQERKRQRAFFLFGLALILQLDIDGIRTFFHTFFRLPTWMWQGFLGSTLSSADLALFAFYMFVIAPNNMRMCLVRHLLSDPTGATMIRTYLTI
smiles,measurement,setting,value
CC(C)=CCC/C(C)=C/C=C/C(C)=C/C=C/C(C)=C/C=C/C=C(C)/C=C/C=C(C)/C=C/C=C(\C)CCC=C(C)C [lycopene],"E. coli pAC-LYC complementation, HPLC of pigments",CsLCYB,CsLCYB was able to convert the lycopene produced by the cells to β-carotene
same,"E. coli pAC-LYC complementation, HPLC of pigments",CsLCYE,"monocyclic δ-carotene and lycopene were detected, implying that CsLCYE is a functional lycopene ε-cyclase"
